Consider 3 molecules from patent publication US20120302530A1, “23-HYDROXY-BETULINIC ACID DERIVATIVES, PREPARATION METHODS AND USES THEREOF” (priority 2009, published 2012).

The subject of test [1] is normal mice fibroblast (MEF). In words: MTT cytotoxicity, normal cell strain. The test is classed as cell-based, mouse. The note with it: for EC50: Normal Mouse Fibroblast, 72 hours, MTT; for sensitivity of normal cells to the compounds: concentration up to 30 μm, cells can still grow well.
Test [2] concerns normal human epithelium of mammary gland (MCF-10a). The experiment in a line: MTT cytotoxicity, normal cell strain. The class given is cell-based. The note with it: for EC50: Homo sapiens, Normal Mammary Gland Epithelial Cell, 72 hours, MTT; for sensitivity of normal cells to the compounds: concentration up to 30 μm, cells can still grow well.
The next test relates to HIV-1Ada-M. The experiment in a line: ELISA of HIV-1Ada-M p24 antigen expression in PBMC. The class given is cell-based. The note with it: for therapeutic index TI: HIV-1Ada-M p24, PBMC, TI=IC50/EC50; for EC50: Human immunodeficiency virus 1, HIV-1Ada-M, PBMC, 7th day, ELISA, read-out: EC50, inhibition of p24 antigen expression. From the text:
(4) Quantitative Enzyme Linked Immunoadsorbent method (EIISA) detecting inhibiting effects of compounds to virus HIV-1Ada-Mp24 expression: (see JIANG, Haiou; WANG, Xu; L I, Rurun; CHEN, Dagang; B I, Kunlong, Experimental Research on Recipe Sanhuangsan Capsule Resisting AIDS Virus in Vitro, [J], Shandong Journal of Traditional Chinese medicine, 2005.8 (1):21-26).
Multi-heads sample injector is used to conduct triple dilution to the sample on the 96-hole culture plate. There are 6 dilutions, in which each dilution has 3 duplicate holes, and each hole is 100 ul. […] On the 96-hole flat culture plate, each hole is added with 25 ul virus stock solution containing 1000˜5000 pg/well P24 antigen, which is sufficiently blended. 75 ul mononuclear cell PBMC suspension liquid is added (3×10^5 cell numbers/hole). Upon placing in incubator of 37° C., 5% CO2 to the third day, 100 ul of culture medium is added to each hole. On the 7th day, cell culture supernatant is collected for p24 antigen test. According to p24 kit description, ELISA method is used to measure the virus HIV-1 p24 antigen concentration of each sample cell culture hole supernatant. The following formula is used to calculate the inhibition ratio of sample to virus.
Inhibition ratio of sample to virus p24 antigen (%)=(1−experimental hole OD value/cell+virus control hole OD value)×100%. Reed and Mueneh method is used to calculate EC50 of the test sample, and to further calculate the therapeutic index (TI) (TI=IC50/EC50). […] The positive control SCH-C, 23-hydroxyl-betulinic acid, compounds zhangnan-5, zhangnan-7 and zhangnan-8 all reach an inhibition ratio above 50% within the tested range. The positive control SCH-C inhibits HIV-1Ada-M p24 antigen expression. […] In addition, the inhibition effect to HIV-1Ada-M has significant dose-effect relationship with its concentration.
A general note: ELISA stands for enzyme-linked immunosorbent assay.

The next test has as its system G-361. In words: MTT cytotoxicity, human tumor cell strain. As to conditions: G-361, Skin (melanoma), 72 hours. The test is classed as cell-based. An excerpt: (§1) We use human tumor cell lines to conduct cytotoxicity analysis. Thirty-one (31) kinds of human tumor cell strains are cultivated in the normal culture medium containing various compounds of zhangnan-5, zhangnan-7 and zhangnan-8. The human tumor lines are bought from ATCC and NCI, and is cultivated with DMEM culture solution containing 10% FBS in 370C couveuse containing 5% CO2. The merged cells are digested by trypsinase, and are counted after washed by the culture solution. 3000˜6000 cells are added into each hole of the 96-hole culture plate, and are hatched for 16 hours or 24 hours. Then, compounds zhangnan-5, zhangnan-7 and zhangnan-8 with different concentrations are added into the holes. Upon further cultivated for another 72 hours, MTT tests are conducted to cells in group treated with drugs and the control group cells, to determine the survival condition of the cells.

The next test deals with D145. In words: MTT cytotoxicity, human tumor cell strain. The class given is cell-based. The note with it: D145, Prostate, 72 hours.
Source text: as §1

The subject of another test is MDA-MB-435. The experiment in a line: MTT cytotoxicity, human tumor cell strain. The class given is cell-based. The note with it: MDA-MB-435, Mammary Gland, 72 hours.
Source text: as §1

In a further test the test system is LoVo. In words: MTT cytotoxicity, human tumor cell strain. The test is classed as cell-based. The note with it: Colon, 72 hours.
Source text: as §1

The subject of the next test is HCT-116. The experiment in a line: MTT cytotoxicity, human tumor cell strain. The note with it: HCT-116, Colon, 72 hours. The class given is cell-based.
Source text: as §1

For the next test, the system named is SK-MEL-5. In words: MTT cytotoxicity, human tumor cell strain. The test is classed as cell-based. The note with it: SK-MEL-5, Skin (melanoma), 72 hours.
Source text: as §1

The next test deals with ACHN. The experiment in a line: MTT cytotoxicity, human tumor cell strain. The class given is cell-based. The note with it: Kidney, 72 hours.
Source text: as §1

A further test deals with normal person PBMC. In words: Toxicity to PBMC cells (MTT, day 7). The class given is cell-based, human. The note with it: Homo sapiens, 168 h, day 7, MTT. As for the experimental part: (§2) (2) Toxicity of compounds zhangnan-5, zhangnan-7 and zhangnan-8 to C8166 and PBMC cells:
(§3) C8166 (human T cell line) and PBM (using lymphocyte isolation liquid to separate from normal human peripheral blood, and adhered mononuclear cell separated from PBMC) cells in exponential phase are taken. The cells are resuspended after centrifugal (1000 r•min-1, 10 min), and the concentrations are adjusted to 4×10^5/ml and 2×10^6/ml. The test samples are double diluted on the 96-hole cell culture plate. In total 6 gradients are set, each having 3 duplicate holes. In addition, positive control group and cell control group are set. Upon adding cell suspended liquid, the test samples are placed in incubator of 370C and 5% CO2 for incubation. On the seventh (7th) day, MTT method is used to determine toxicity of the samples to cells.
(§4) Inhibition ratio of cell growth (%)=(1−experimental hole OD value/control hole (OD value)×100%

Test [3] deals with C8166 (human T cell line). The experiment in a line: Toxicity to C8166 cells (MTT, day 7). The class given is cell-based. As to conditions: Homo sapiens, read-out: IC50 (50% inhibition concentration) to C8166 cell. As to the method: as §2, §3, §4
The test system of a further test is HIV-1IIIB. The experiment in a line: Inhibition of HIV-1IIIB induced syncytium formation in C8166 cells. The test is classed as cell-based. The note with it: for therapeutic index TI: HIV-1IIIB syncytium, C8166, TI=IC50/EC50; for EC50: Human immunodeficiency virus 1, HIV-1IIIB, C8166 cells, third day after infection. An excerpt:
(3) The inhibition effects of compounds zhangnan-5, zhangnan-7 and zhangnan-8 to virus HIV-1IIIB inducing C8166 cell to form syncytium: (see JIANG, Haiou; WANG, Xu; L I, Rurun; CHEN, Dagang; B I, Kunlong, Experimental Research on Recipe Sanhuangsan Capsule for Resisting AIDS virus in Vitro, [J]. Shandong Journal of Traditional Chinese medicine, 2005.8 (1):21-26).
The test sample is double diluted with culture medium on the 96-hole flat culture plate. There are 8 dilutions in total. Each hole 100 ul has 2 duplicate holes. In addition, there are positive control group, cell control group and virus control group. 80 ul C8166 cell of 4×10^5/ml is added into each hole, and then 20 ul virus HIV-1IIIB supernatant is added into each hole. The final volume of each hole is 200 ul. The sample is placed in incubator of 370C, 5% CO2 for cultivation. […] Under the inverted microscope, the number of syncytium formed by virus HIV-1IIIB inducing C8166 cell is counted. […] The following formula is used to calculate the inhibition ratio of the sample to syncytium.
Inhibition ratio formed by syncytium (%)=(1−experimental hole syncytium number/control hole syncytium number)×100%

Like-named read-outs stand apart in the source and are kept apart here.

Turning to `CC(C)C1CCC2(C(=O)O)CCC3(C)C(CCC4C5(C)CCC(O)C(C)(CO)C5CCC43C)C12` (stereo not drawn) [zhangnan-8, 23-hydroxyl-dihydrobetulinic acid], the EC50 (as a rule, the concentration that produces a half-maximal response) was above 30 µM in [1]; above 30 µM in [2]; 1600 ± 230 nM in the test with HIV-1Ada-M; 5.3 µM in the test on G-361; 8.4 µM in the test with D145; 7.9 µM in the test with MDA-MB-435. Moreover, the EC50 with LoVo stood at 9.6 µM; in the test on HCT-116, 7.8 µM; in the test on SK-MEL-5, 4.9 µM; in the test with ACHN it was 8.9 µM; in the test on HIV-1IIIB, 1100 ± 90 nM. The “sensitivity of normal cells to the compounds” value (from here on “sensitivity of normal cells”) in [1] and in test [2] was “not sensitive” in each case. Moreover, the “therapeutic index TI” value with HIV-1Ada-M is on record as 7.3; in the test with HIV-1IIIB it was 9.4. For the same molecule, the IC50 with normal person PBMC came out at 11.6 ± 3.5 µM; in [3] (168 h, C8166, day 7, MTT), 10.3 ± 2.9 µM.

As for `CC(C)C1CCC2(C(=O)O)CCC3(C)C(CCC4C5(C)CCC(=O)C(C)(CO)C5CCC43C)C12` (stereo not drawn) [zhangnan-7], the EC50 in test [1] was above 30 µM; in test [2], above 30 µM; with HIV-1Ada-M, 2.6 ± 0.5 nM; in the test on G-361, 19.3 µM; in the test with D145 it was 14.8 µM; in the test with MDA-MB-435, 19.3 µM. In addition, the 50% effective concentration (EC50) in the test with LoVo came out at 15.2 µM; in the test with HCT-116, 15.1 µM; with SK-MEL-5, 18.5 µM; in the test with ACHN, 18.3 µM; with HIV-1IIIB, 1.9 ± 0.2 nM. In addition, the “sensitivity of normal cells” value in test [1] and in test [2] was “not sensitive” each time. Moreover, the entries for the “therapeutic index TI” value with HIV-1Ada-M and in the test with HIV-1IIIB were 9923 and 13158, respectively. Also, the IC50 in the test with normal person PBMC is 25.8 ± 4.9 µM; in test [3] (168 h, C8166, day 7, MTT), 25 ± 5.2 µM.

With `C=C(C)C1CCC2(C(=O)O)CCC3(C)C(CCC4C5(C)CCC(=O)C(C)(CO)C5CCC43C)C12` (stereo not drawn) [zhangnan-5], the EC50 in test [1] was above 30 µM; in test [2] it was above 30 µM; in the test with HIV-1Ada-M, 700 ± 190 nM; in the test on G-361, 0.087 µM; with D145, 0.85 µM; in the test on MDA-MB-435 it was 0.55 µM. The EC50 in the test with LoVo was 0.15 µM; in the test with HCT-116, 0.09 µM; in the test with SK-MEL-5, 0.093 µM; in the test on ACHN, 1.2 µM; in the test with HIV-1IIIB it was 500 ± 70 nM. In addition, the “sensitivity of normal cells” value in [1] and in [2] was “not sensitive” each time. Moreover, the results for the “therapeutic index TI” value in the test on HIV-1Ada-M and with HIV-1IIIB were 3.4 and 4.6, respectively. Also, the IC50 in the test with normal person PBMC was found to be 2.4 ± 0.38 µM; in test [3] (C8166, 168 h) it was 2.3 ± 0.47 µM.
